Where two headings read alike, the source gives them in different places.
Test system: FLU A (PR/8/34)
Experiment: Flu A Neuraminidase Antiviral Assay
Type: cell-based

`CN1C(=O)c2c(O)c(=O)ccn2N2C(c3ccccc3)C3CCCC(C3)C12` (single isomer, unassigned) [Compound 11A, 4-hydroxy-6-methyl-12-phenyl-6,6a,7,8,9,10,11,12-octahydro-7,11-methanopyrido[1′,2′:1,6][1,2,4]triazino[2,3-a]azocine-3,5-dione] was tested, and the EC50 (MDCK, 48 h) was greater than 8.1 µM.
In the case of `CN1C(=O)c2c(O)c(=O)ccn2N2C(c3ccccc3)C3CCCC(C3)C12` (single isomer, unassigned) [Compound 11B, 4-hydroxy-6-methyl-12-phenyl-6,6a,7,8,9,10,11,12-octahydro-7,11-methanopyrido[1′,2′:1,6][1,2,4]triazino[2,3-a]azocine-3,5-dione], the EC50 is reported as greater than 8.1 µM.
`CN1C(=O)c2c(O)c(=O)ccn2N2C(c3cccc(OC(F)F)c3)CCCC12` (single isomer, unassigned) [Compound 12A, 1-(3-(difluoromethoxy)phenyl)-7-hydroxy-5-methyl-1,2,3,4,4a,5-hexahydrodipyrido[1,2-b:2′,1′-f][1,2,4]triazine-6,8-dione] was tested, and the EC50 (MDCK, 48 h) was greater than 8.1 µM.
With `CN1C(=O)c2c(O)c(=O)ccn2N2C(c3cccc(OC(F)F)c3)CCCC12` (single isomer, unassigned) [Compound 12B, 1-(3-(difluoromethoxy)phenyl)-7-hydroxy-5-methyl-1,2,3,4,4a,5-hexahydrodipyrido[1,2-b:2′,1′-f][1,2,4]triazine-6,8-dione] the EC50 was greater than 8.1 µM.
In the case of `CN1C(=O)c2c(O)c(=O)ccn2N2C(c3cc(F)ccc3C(F)(F)F)CCCC12` (single isomer, unassigned) [Compound 13A, 1-(5-fluoro-2-(trifluoromethyl)phenyl)-7-hydroxy-5-methyl-1,2,3,4,4a,5-hexahydro-dipyrido[1,2-b:2′,1′-f][1,2,4]triazine-6,8-dione], the EC50 is reported as greater than 8.1 µM.
For `CN1C(=O)c2c(O)c(=O)ccn2N2C(c3cc(F)ccc3C(F)(F)F)CCCC12` (single isomer, unassigned) [Compound 13B, 1-(5-fluoro-2-(trifluoromethyl)phenyl)-7-hydroxy-5-methyl-1,2,3,4,4a,5-hexahydro-dipyrido[1,2-b:2′,1′-f][1,2,4]triazine-6,8-dione], the EC50 was 0.783 µM.
In the case of `CN1C(=O)c2c(O)c(=O)ccn2N2C(c3ccccc3C(F)(F)F)CCCC12` (single isomer, unassigned) [Compound 14A, 7-hydroxy-5-methyl-1-(2-(trifluoromethyl)phenyl)-1,2,3,4,4a,5-hexahydrodipyrido[1,2-b:2′,1′-f][1,2,4]triazine-6,8-dione], the EC50 (MDCK, 48 h) is reported as greater than 8.1 µM.
Work on `CN1C(=O)c2c(O)c(=O)ccn2N2C(c3ccccc3C(F)(F)F)CCCC12` (single isomer, unassigned) [Compound 14B, 7-hydroxy-5-methyl-1-(2-(trifluoromethyl)phenyl)-1,2,3,4,4a,5-hexahydrodipyrido[1,2-b:2′,1′-f][1,2,4]triazine-6,8-dione] yielded an EC50 greater than 8.1 µM.
In the case of `CN1C(=O)c2c(O)c(=O)ccn2N2C(c3ccccc3C(F)(F)F)CCC12` (single isomer, unassigned) [Compound 15A, 6-hydroxy-4-methyl-1-(2-(trifluoromethyl)phenyl)-2,3,3a,4-tetrahydro-1H-pyrido[2,1-f]pyrrolo[1,2-b][1,2,4]triazine-5,7-dione], the EC50 is reported as greater than 8.1 µM.
Molecule `CN1C(=O)c2c(O)c(=O)ccn2N2C(c3ccccc3C(F)(F)F)CCC12` (single isomer, unassigned) [Compound 15B, 6-hydroxy-4-methyl-1-(2-(trifluoromethyl)phenyl)-2,3,3a,4-tetrahydro-1H-pyrido[2,1-f]pyrrolo[1,2-b][1,2,4]triazine-5,7-dione] has an EC50 of 1.45 µM.
Work on `CN1C(=O)c2c(O)c(=O)ccn2N2C(c3cc(F)ccc3OC(F)F)CCCC12` (single isomer, unassigned) [Compound 17A, 1-(2-(difluoromethoxy)-5-fluorophenyl)-7-hydroxy-5-methyl-1,2,3,4,4a,5-hexahydrodipyrido[1,2-b:2′,1′-f][1,2,4]triazine-6,8-dione] yielded an EC50 of 3.51 µM.
For `CN1C(=O)c2c(O)c(=O)ccn2N2C(c3cc(F)ccc3OC(F)F)CCCC12` (single isomer, unassigned) [Compound 17B, 1-(2-(difluoromethoxy)-5-fluorophenyl)-7-hydroxy-5-methyl-1,2,3,4,4a,5-hexahydrodipyrido[1,2-b:2′,1′-f][1,2,4]triazine-6,8-dione], the EC50 was 0.103 µM.
With `CN1C(=O)c2c(O)c(=O)ccn2N2C1CCCC2(C)c1ccccc1` (single isomer, unassigned) [Compound 18A, 7-hydroxy-1,5-dimethyl-1-phenyl-1,2,3,4,4a,5-hexahydrodipyrido[1,2-b:2′,1′-f][1,2,4]triazine-6,8-dione] the EC50 was 0.0071 µM.
For `CN1C(=O)c2c(O)c(=O)ccn2N2C1CCCC2(C)c1ccccc1` (single isomer, unassigned) [Compound 18B, 7-hydroxy-1,5-dimethyl-1-phenyl-1,2,3,4,4a,5-hexahydrodipyrido[1,2-b:2′,1′-f][1,2,4]triazine-6,8-dione], the EC50 was 0.356 µM.
`COc1ccccc1C1CCCC2N(C)C(=O)c3c(O)c(=O)ccn3N12` (single isomer, unassigned) [Compound 19A, 7-hydroxy-1-(2-methoxyphenyl)-5-methyl-1,2,3,4,4a,5-hexahydrodipyrido[1,2-b:2′,1′-f][1,2,4]triazine-6,8-dione] gave an EC50 greater than 8.1 µM.
For `COc1ccccc1C1CCCC2N(C)C(=O)c3c(O)c(=O)ccn3N12` (single isomer, unassigned) [Compound 19B, 7-hydroxy-1-(2-methoxyphenyl)-5-methyl-1,2,3,4,4a,5-hexahydrodipyrido[1,2-b:2′,1′-f][1,2,4]triazine-6,8-dione], the EC50 was 0.348 µM.
For `CN1C(=O)c2c(O)c(=O)ccn2N2C1CCCC2(C)c1ccccc1Cl` (single isomer, unassigned) [Compound 20A, 1-(2-chlorophenyl)-7-hydroxy-1,5-dimethyl-1,2,3,4,4a,5-hexahydrodipyrido[1,2-b:2′,1′-f][1,2,4]triazine-6,8-dione], the EC50 was 0.564 µM.
`CN1C(=O)c2c(O)c(=O)ccn2N2C1CCCC2(C)c1ccccc1Cl` (single isomer, unassigned) [Compound 20B, 1-(2-chlorophenyl)-7-hydroxy-1,5-dimethyl-1,2,3,4,4a,5-hexahydrodipyrido[1,2-b:2′,1′-f][1,2,4]triazine-6,8-dione] gave an EC50 of 0.0046 µM.
Molecule `CN1C(=O)c2c(O)c(=O)ccn2N2C1CCCC21CCc2ccccc21` (single isomer, unassigned) [Compound 21A, 7-hydroxy-5-methyl-2′,3,3′,4,4a,5-hexahydro-2H-spiro[dipyrido[1,2-b:2′,1′-f][1,2,4]triazine-1,1′-indene]-6,8-dione] has an EC50 greater than 8.1 µM.
For `CN1C(=O)c2c(O)c(=O)ccn2N2C1CCCC21CCc2ccccc21` (single isomer, unassigned) [Compound 21B, 7-hydroxy-5-methyl-2′,3,3′,4,4a,5-hexahydro-2H-spiro[dipyrido[1,2-b:2′,1′-f][1,2,4]triazine-1,1′-indene]-6,8-dione], the EC50 was 0.0026 µM.
For `CN1C(=O)c2c(O)c(=O)ccn2N2C1CCCC21CCc2ccccc21` (single isomer, unassigned) [Compound 21C, 7-hydroxy-5-methyl-2′,3,3′,4,4a,5-hexahydro-2H-spiro[dipyrido[1,2-b:2′,1′-f][1,2,4]triazine-1,1′-indene]-6,8-dione], the EC50 was 1.6 µM.
